Measured values published in paper PMC12530842, “Potent, Selective, and Drug‐Like G Protein‐Coupled Receptor Kinase 5 and 6 Inhibitors: Design, Synthesis, and X‐Ray Structural Studies” (Chemmedchem, 2025).
“Also recorded” adds a separate entry of the source.

What was measured:
Type in all cases: biochemical
GRK2 = target: T1, GRK2 (Homo sapiens, UniProt P25098); experiment: GRK2 kinase inhibition assay, phosphorylation of tubulin ([γ-32P]-ATP); conditions: for IC50: phosphorylation of the soluble substrate tubulin, ± standard deviation from 3 to 4 independent experiments
T1 construct: made in house
T1 sequence (P25098 1-689): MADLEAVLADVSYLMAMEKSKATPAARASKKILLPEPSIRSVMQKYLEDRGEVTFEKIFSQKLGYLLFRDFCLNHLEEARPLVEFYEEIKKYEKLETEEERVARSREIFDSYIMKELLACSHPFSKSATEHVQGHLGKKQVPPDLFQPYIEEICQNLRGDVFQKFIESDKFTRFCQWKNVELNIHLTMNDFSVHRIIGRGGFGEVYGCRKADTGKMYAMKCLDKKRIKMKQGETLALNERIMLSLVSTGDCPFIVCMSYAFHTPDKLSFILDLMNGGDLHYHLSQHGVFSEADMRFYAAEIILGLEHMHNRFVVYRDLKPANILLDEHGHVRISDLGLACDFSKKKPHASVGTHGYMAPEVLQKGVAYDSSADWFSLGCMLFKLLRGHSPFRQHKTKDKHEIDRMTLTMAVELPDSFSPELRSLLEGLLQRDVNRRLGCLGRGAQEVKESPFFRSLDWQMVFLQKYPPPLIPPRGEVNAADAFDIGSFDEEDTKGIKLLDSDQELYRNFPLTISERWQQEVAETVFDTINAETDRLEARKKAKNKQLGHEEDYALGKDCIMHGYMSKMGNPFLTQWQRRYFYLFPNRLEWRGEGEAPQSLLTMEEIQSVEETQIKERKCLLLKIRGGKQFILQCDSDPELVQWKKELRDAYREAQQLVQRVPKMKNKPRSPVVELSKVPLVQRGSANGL
Experimental: (§1) The inhibitory potency of synthetic compounds containing the N‐heterocyclic amide functionalities was evaluated against human GRK2, GRK5 and GRK6 using our in vitro assays‐, as reported previously.^[ [35], [37] ^] […] We then investigated the effect of (R)‐ and (S)‐Boc pyrrolidine carboxamide derivatives. […] These improvements of GRK5 IC50 values over their Boc‐derivatives (6c and 6d) indicated the bulky Boc group may not be able to fit as well in the catalytic site of these GRKs. On the other hand, sterically less demanding acetamide derivatives 6e and 6f were well accommodated consistent with their very good activity against GRK5, GRK6, and GRK2, but only with marginal selectivity against GRK2. […] We also examined the effect of 3(S)‐ and 3(R)‐Boc‐pyrrolidine derivatives.
(§2) Protein expression and purification.
(§3) Human GR K5 (residues 1- 590) w ild- type and D 311N mutant w ere expressed in E. co li Rosetta (D E3) and purified v ia nickel-nitrilotriacetic acid affinity chromatography, followed by tandem columns consisting of a HiTrap Q HP anion exchange chromatography column and a HiTrap SP HP cation exchange chromatography column, and finished by Superdex 200 Increase size -exclusion chromatography, as described previously. Human GRK6 (with T10A and mutations that eliminate palmitoylation sites) was expressed in Sf9 insect cells [ 2] and was purified w ith the same protocol for GR K5 [1]. Human GRK2 w as purified as described previously.
(§4) Kinase inhibition Assays.
(§5) Inhibit ion assays were conducted in a reaction mixture containing 20 mM H EPES pH 7. 0, 2 mM MgC l2, and 0.025% n- dodecyl-β-D-maltoside. Prior to reaction initiation, GR K5 or GR K6 at 50 nM was mixed w ith porcine brain tubulin ( PurSolutions) at a concentration of 500 nM. The assay w as started w ith a 30- second incubation of inhibitors, followed by the add it ion of 5 μ M ATP supplemented w ith radioactive [γ-32P]-AT P a t 60 C i/m mol (PerkinElm er Life Sciences). Re actions pro ceeded for 5 m inut es at ro o m te mpera ture a nd were terminated by adding 4X SDS loading buffer. T he reaction mixtures were then s eparated via SDS - PAG E, dried, and exposed using a phosphor imaging screen. Quantification was performed using a Personal Molecular Imager and Quantity One 1- D Analysis Software. Analogous inhibition assays were conducted on p urified GR K2 wit h a t ub ulin conce ntrat ion of 1 μ M. Data ana lysis was perf orme d usin g Graph Pa d Pr ism, and IC50 values wer e calculated based on three- parameter dose- dependent curves (with a Hill coefficient fixed at 1) plotting phosphate transfer against inhibitor concentration. At least three replicates were conducted to determine the mean and standard deviation of IC50 values as published previously . […]
(§6) (6) The final models w ere validated with MolProbity prior to depos ition along with structure factors in the Protein Data Bank. Atomic figures were created with Py mol (7). Cr ystallographic statistics are reported in Supplemental Table 1. Coordinates for inh ib itor 6t (GRL-098- 22) w ere deposited in the Protein Data Bank, with accession code 9BR K.
(§7) 1. Y. Chen, A. Sonawane, R. Manda, R. K. G adi, J. J. G. Tesmer, A. K. Ghosh. Development of a new class of potent and highly select ive G protein- coupled r eceptor kinase 5 inhibitors and structural insight from crystal structures of inhibitor complexes. Eur. J. Med. Chem. 2024, 264, 115931.
(§8) 2. D. T. Lodowski, V. M. T esmer, J. L. Benovic, J. J. Tesmer. The structure of G protein- coupled receptor kinase (GRK)-6 defines a second lineage of GRKs. J. Bio l. C he m. 2006, 281,16785- 16793.

GRK6 = target: T2, GRK6 (Homo sapiens, UniProt P43250, C561S/C562S/C565S/T10A); experiment: GRK6 kinase inhibition assay, phosphorylation of tubulin ([γ-32P]-ATP); conditions: for Selectivity GRK5/GRK6: fold selectivity for GRK6 over GRK5; for IC50: phosphorylation of the soluble substrate tubulin, ± standard deviation from 3 to 4 independent experiments
T2 construct: His tag (inferred: purified by the GRK5 protocol, which starts with nickel-NTA); made in house; host or cells: Sf9 insect cells
T2 sequence (P43250 whole entry T10A/C561S/C562S/C565S): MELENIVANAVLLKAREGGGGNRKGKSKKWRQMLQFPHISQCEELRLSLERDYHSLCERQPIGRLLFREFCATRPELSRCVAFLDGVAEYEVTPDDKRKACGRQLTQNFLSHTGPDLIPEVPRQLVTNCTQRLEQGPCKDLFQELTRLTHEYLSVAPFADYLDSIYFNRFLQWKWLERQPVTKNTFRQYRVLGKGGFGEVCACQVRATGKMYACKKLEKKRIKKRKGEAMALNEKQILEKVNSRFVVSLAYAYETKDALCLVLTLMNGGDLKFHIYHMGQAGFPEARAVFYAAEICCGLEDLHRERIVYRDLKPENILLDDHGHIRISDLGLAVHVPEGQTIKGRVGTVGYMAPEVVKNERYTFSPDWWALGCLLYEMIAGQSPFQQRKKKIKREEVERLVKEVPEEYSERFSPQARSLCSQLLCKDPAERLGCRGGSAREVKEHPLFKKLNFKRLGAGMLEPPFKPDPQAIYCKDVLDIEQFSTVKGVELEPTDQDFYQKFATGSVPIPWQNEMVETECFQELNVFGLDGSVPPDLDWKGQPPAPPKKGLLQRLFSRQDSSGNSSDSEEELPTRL
Experimental: as §1, §2, §3, §4, §5, §6, §7, §8

GRK5 = target: T3, GRK5 (Homo sapiens, UniProt P34947); experiment: GRK5 kinase inhibition assay, phosphorylation of tubulin ([γ-32P]-ATP); conditions: for Selectivity GRK2/GRK5: fold selectivity for GRK5 over GRK2; for IC50: phosphorylation of the soluble substrate tubulin, ± standard deviation from 3 to 4 independent experiments
T3 construct: Human GR K5 (residues 1- 590) w ild- type and D 311N mutant w ere expressed in E. co li Rosetta; His tag (inferred from nickel-NTA purification); made in house; host or cells: E. coli Rosetta (DE3)
T3 sequence (P34947 whole entry, the tested form may be a part): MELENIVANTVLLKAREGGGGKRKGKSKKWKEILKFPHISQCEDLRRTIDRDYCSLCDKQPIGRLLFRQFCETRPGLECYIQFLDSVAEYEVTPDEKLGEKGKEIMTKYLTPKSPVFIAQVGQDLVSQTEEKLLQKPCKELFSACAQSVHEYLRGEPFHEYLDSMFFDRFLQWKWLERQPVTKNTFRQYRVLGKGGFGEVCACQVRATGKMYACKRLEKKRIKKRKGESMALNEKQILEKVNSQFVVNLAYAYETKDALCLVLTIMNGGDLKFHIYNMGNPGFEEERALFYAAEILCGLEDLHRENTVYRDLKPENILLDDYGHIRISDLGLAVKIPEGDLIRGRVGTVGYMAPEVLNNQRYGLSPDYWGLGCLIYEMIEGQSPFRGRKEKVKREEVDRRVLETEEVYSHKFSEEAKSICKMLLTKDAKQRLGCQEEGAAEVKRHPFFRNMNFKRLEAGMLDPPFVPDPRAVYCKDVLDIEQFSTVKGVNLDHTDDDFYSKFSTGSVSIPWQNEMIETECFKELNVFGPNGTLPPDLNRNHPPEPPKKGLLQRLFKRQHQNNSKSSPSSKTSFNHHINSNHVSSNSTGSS
Experimental: as §1, §2, §3, §4, §5, §6, §7, §8

Row | Structure (SMILES) | IC50 (GRK2) [µM] | Selectivity GRK5/GRK6 (GRK6) [fold] | IC50 (GRK6) [nM] | selectivity over GRK2 (GRK5; GRK5 vs GRK2, as stated in text) | Selectivity GRK2/GRK5 (GRK5) [fold] | IC50 (GRK5) [nM] | activity against GRK2 (in words) (GRK2) | fold enhanced GRK5 inhibitory activity (GRK5; over the (R)-Boc derivative 6c) | GRK6 IC50 (in words) (GRK6) | GRK5 IC50 (in words) (GRK5)
1 | Cc1[nH]c(/C=C2\C(=O)Nc3ccc(C(=O)N[C@H](C)c4ccc(F)cc4)cc32)c(C)c1NC(=O)[C@@H]1C=CCN1 [6j, (Z)‐3‐((4‐((S)‐2,5‐Dihydro‐1H‐Pyrrole‐2‐Carboxamido)‐3,5‐Dimethyl‐1H‐Pyrrol‐2‐Yl)Methylene)‐N‐((R)‐1‐(4‐Fluorophenyl)Ethyl)‐2‐Oxoindoline‐5‐Carboxamide] | 0.48 ± 0.4 | 1 | 30 ± 10 | over 15 fold | 16 | 30 ± 4 |  |  |  | 
2 | Cc1[nH]c(/C=C2\C(=O)Nc3ccc(C(=O)N[C@H](C)c4ccc(F)cc4)cc32)c(C)c1NC(=O)[C@H]1CNCCN1 [6u, (Z)‐3‐((3,5‐Dimethyl‐4‐((R)‐Piperazine‐2‐Carboxamido)‐1 H‐Pyrrol‐2‐Yl)Methylene)‐N‐((R)‐1‐(4‐Fluorophenyl)Ethyl)‐2‐Oxoindoline‐5‐Carboxamide] | 0.21 ± 0.1 |  | 50 |  | 15 | 14 ± 1 |  |  |  | 
3 | Cc1[nH]c(/C=C2\C(=O)Nc3ccc(C(=O)N[C@H](C)c4ccc(F)cc4)cc32)c(C)c1NC(=O)[C@@H]1CCCNC1 [6r, (Z)‐3‐((3,5‐Dimethyl‐4‐((R)‐Piperidine‐3‐Carboxamido)‐1H‐Pyrrol‐2‐Yl)Methylene)‐N‐((R)‐1‐(4‐Fluorophenyl)Ethyl)‐2‐Oxoindoline‐5‐Carboxamide] | 0.62 ± 0.3 | 1 | 60 ± 20 |  | 20 | 30 ± 2 |  |  |  | 
4 | Cc1[nH]c(/C=C2\C(=O)Nc3ccc(C(=O)N[C@H](C)c4ccc(F)cc4)cc32)c(C)c1NC(=O)[C@@H]1CNCCN1 [6v, (Z)‐3‐((3,5‐Dimethyl‐4‐((S)‐Piperazine‐2‐Carboxamido)‐1H‐Pyrrol‐2‐Yl)Methylene)‐N‐((R)‐1‐(4‐Fluorophenyl)Ethyl)‐2‐Oxoindoline‐5‐Carboxamide] | 0.19 ± 0.1 | 1 | 26 ± 20 |  | 10 | 16 ± 0.5 |  |  |  | 
5 | Cc1[nH]c(/C=C2\C(=O)Nc3ccc(C(=O)N[C@H](C)c4ccc(F)cc4)cc32)c(C)c1NC(=O)[C@@H]1CCC(=O)N1 [6a, (Z)‐3‐((3,5‐Dimethyl‐4‐((S)‐5‐Oxopyrrolidine‐2‐Carboxamido)‐1H‐Pyrrol‐2‐Yl)Methylene)‐N‐((R)‐1‐(4‐Fluorophenyl)Ethyl)‐2‐Oxoindoline‐5‐Carboxamide] | 0.71 ± 0.4 | 1 | 20 ± 10 |  | 26 | 27 ± 6 |  |  |  | 

Second part, led by results:

Row | IC50 (GRK2) [µM] | Selectivity GRK5/GRK6 (GRK6) [fold] | IC50 (GRK6) [nM] | selectivity over GRK2 (GRK5; GRK5 vs GRK2, as stated in text) | Selectivity GRK2/GRK5 (GRK5) [fold] | IC50 (GRK5) [nM] | activity against GRK2 (in words) (GRK2) | fold enhanced GRK5 inhibitory activity (GRK5; over the (R)-Boc derivative 6c) | Structure (SMILES) | GRK6 IC50 (in words) (GRK6) | GRK5 IC50 (in words) (GRK5)
6 | 1.2 ± 0.4 |  | 2500 ± 400 |  | 2 | 500 ± 100 |  |  | Cc1[nH]c(/C=C2\C(=O)Nc3ccc(C(=O)N[C@H](C)c4ccc(F)cc4)cc32)c(C)c1NC(=O)[C@H]1CCCCN1C(=O)OC(C)(C)C [6m, Tert‐Butyl(R)‐2‐((5‐(((Z)‐5‐(((R)‐1‐(4‐Fluorophenyl)Ethyl)Carbamoyl)‐2‐Oxoindolin‐3‐Ylidene)Methyl)‐2,4‐Dimethyl‐1H‐Pyrrol‐3‐Yl)Carbamoyl)Piperidine‐1‐Carboxylate] |  | 
7 | > 1000 | 1 | 880 ± 50 |  | >1000 | 1000 ± 600 |  |  | Cc1[nH]c(/C=C2\C(=O)Nc3ccc(C(=O)N[C@H](C)c4ccc(F)cc4)cc32)c(C)c1NC(=O)[C@H]1CCN(C(=O)OC(C)(C)C)C1 [6l, Tert‐Butyl(S)‐3‐((5‐(((Z)‐5‐(((R)‐1‐(4‐Fluorophenyl)Ethyl)Carbamoyl)‐2‐Oxoindolin‐3‐Ylidene)Methyl)‐2,4‐Dimethyl‐1H‐Pyrrol‐3‐Yl)Carbamoyl)Pyrrolidine‐1‐Carboxylate] |  | 
8 | 120 ± 50 | 2 | 500 ± 200 |  | 130 | 920 ± 500 | little to no activity |  | Cc1[nH]c(C=C2C(=O)Nc3ccc(C(=O)NC(C)c4ccc(F)cc4)cc32)c(C)c1NC(=O)C1C=CCN1C(=O)OC(C)(C)C [6i, Tert‐Butyl(S)‐2‐((5‐(((Z)‐5‐(((R)‐1‐(4‐Fluorophenyl)Ethyl)Carbamoyl)‐2‐Oxoindolin‐3‐yl‐ Idene)Methyl)‐2,4‐Dimethyl‐1H‐Pyrrol‐3‐Yl)Carbamoyl)‐2,5‐Dihydro‐1H‐Pyrrole‐1‐Carboxylate] | sub‐micromolar; also recorded: low micromolar range | sub‐micromolar; also recorded: low micromolar range
9 | > 1000 |  | 9900 ± 2000 |  | >2000 | 440 ± 160 |  | over 100 fold | Cc1[nH]c(/C=C2\C(=O)Nc3ccc(C(=O)N[C@H](C)c4ccc(F)cc4)cc32)c(C)c1NC(=O)[C@@H]1CCCN1C(=O)OC(C)(C)C [6d, Tert‐Butyl(S)‐2‐((5‐(((Z)‐5‐(((R)‐1‐(4‐Fluorophenyl)Ethyl)Carbamoyl)‐2‐Oxoindolin‐3‐Ylidene)Methyl)‐2,4‐Dimethyl‐1H‐Pyrrol‐3‐Yl)Carbamoyl)Pyrrolidine‐1‐Carboxylate] |  | 
10 | 0.9 ± 0.3 | 2 | 31 ± 20 |  | 15 | 60 ± 20 |  |  | CC(=O)N1CCCC1C(=O)Nc1c(C)[nH]c(C=C2C(=O)Nc3ccc(C(=O)NC(C)c4ccc(F)cc4)cc32)c1C [6f, ((Z)‐3‐((4‐((S)‐1‐Acetylpyrrolidine‐2‐Carboxamido)‐3,5‐Dimethyl‐1H‐Pyrrol‐2‐Yl)Methylene)‐N‐((R)‐1‐(4‐Fluorophenyl)Ethyl)‐2‐Oxoindoline‐5‐Carboxamide] |  | 
11 | 35 ± 9.4 | 1 | 60 ± 20 |  | 430 | 81 ± 10 |  |  | Cc1[nH]c(/C=C2\C(=O)Nc3ccc(C(=O)N[C@H](C)c4ccc(F)cc4)cc32)c(C)c1NC(=O)[C@H]1CN(C(=O)OC(C)(C)C)CCN1 [6s, Tert‐Butyl(R)‐3‐((5‐(((Z)‐5‐(((R)‐1‐(4‐Fluorophenyl)Ethyl)Carbamoyl)‐2‐Oxoindolin‐3‐Ylidene)Methyl)‐2,4‐Dimethyl‐1H‐Pyrrol‐3‐Yl)Carbamoyl)Piperazine‐1‐Carboxylate] |  | 
